Assay results as given in the NIST ThermoML archive (doi:10.1016/j.jct.2016.05.007).
“And” between values parts separate entries of the source, which are not always exact repeats. Equal values may be shown once.

Experiments:
[1] = molar enthalpy of vaporization or sublimation; settings: 298.15 K; Crystal 2; Static calorimetry
[2] = Molar enthalpy of transition or fusion; settings: DSC
[3] = for Triple point temperature: DSC

CC(C)(C)c1ccc2c(c1)Cc1cc(C(C)(C)C)ccc1-2 [2,7-di-tert-butylfluorene]
Settings	molar enthalpy [kcal/mol]
[1]	28.66

Settings	Molar enthalpy of transition or fusion, [2] [kcal/mol]	Triple point temperature, [3] [K]
Crystal 1	3.73	395.9
Crystal 2	2.39	367

[3]
Settings	vapor or sublimation pressure
349.14 K, Crystal 2, Calculated from knudsen effusion weight loss	0.000106 kPa and 0.000105 kPa
351.14 K, Crystal 2, Calculated from knudsen effusion weight loss	0.000136 kPa and 0.000135 kPa and 0.000132 kPa
353.3 K, Crystal 2, Calculated from knudsen effusion weight loss	0.000169 kPa and 0.000171 kPa
355.28 K, Crystal 2, Calculated from knudsen effusion weight loss	0.000213 kPa and 0.000215 kPa and 0.000217 kPa
357.2 K, Crystal 2, Calculated from knudsen effusion weight loss	0.000271 kPa and 0.000267 kPa and 0.000261 kPa
359.19 K, Crystal 2, Calculated from knudsen effusion weight loss	0.000321 kPa and 0.000336 kPa and 0.00033 kPa
361.14 K, Crystal 2, Calculated from knudsen effusion weight loss	0.000408 kPa and 0.000409 kPa
363.27 K, Crystal 2, Calculated from knudsen effusion weight loss	0.000509 kPa and 0.000507 kPa and 0.000514 kPa
368.2 K, Crystal 1, Calculated from knudsen effusion weight loss	0.000805 kPa and 0.000816 kPa and 0.000828 kPa
368.55 K, Crystal 1, Closed cell (Static) method	0.000873 kPa
369.13 K, Crystal 1, Calculated from knudsen effusion weight loss	0.000886 kPa and 0.000888 kPa and 0.000889 kPa
370.26 K, Crystal 1, Calculated from knudsen effusion weight loss	0.000975 kPa and 0.000979 kPa
370.54 K, Crystal 1, Closed cell (Static) method	0.001055 kPa
371.21 K, Crystal 1, Calculated from knudsen effusion weight loss	0.001079 kPa and 0.001082 kPa and 0.00107 kPa
372.21 K, Crystal 1, Calculated from knudsen effusion weight loss	0.00118 kPa and 0.001178 kPa
372.5 K, Crystal 1, Closed cell (Static) method	0.001246 kPa
374.5 K, Crystal 1, Closed cell (Static) method	0.001492 kPa
376.45 K, Crystal 1, Closed cell (Static) method	0.001778 kPa
378.41 K, Crystal 1, Closed cell (Static) method	0.002106 kPa
380.4 K, Crystal 1, Closed cell (Static) method	0.002524 kPa
382.38 K, Crystal 1, Closed cell (Static) method	0.002965 kPa
384.34 K, Crystal 1, Closed cell (Static) method	0.003492 kPa
386.3 K, Crystal 1, Closed cell (Static) method	0.004126 kPa
388.27 K, Crystal 1, Closed cell (Static) method	0.004862 kPa
390.24 K, Crystal 1, Closed cell (Static) method	0.00567 kPa

[3], Closed cell (Static) method, Liquid
Settings	vapor or sublimation pressure [kPa]
384.34 K	0.003946
386.32 K	0.004548
388.28 K	0.005217
390.28 K	0.005976
392.22 K	0.006859
394.2 K	0.007843
396.17 K	0.008987
398.15 K	0.01026
400.05 K	0.01164
402.07 K	0.01327
404.04 K	0.01508
